Each structure is given as a SMILES string. Counter-ions that a name gives are not always drawn. Bounds are passed on as bounds.

These results are taken from patent publication US9150545B2, “Carboxamide compounds and their use as calpain inhibitors V” (ABBVIE DEUTSCHLAND GMBH & CO. KG, priority 2012, dated 2015).

In this assay the target is T1, calpain-I isolated from human erythrocytes (Homo sapiens, UniProt P07384).
T1 construct: calpain-I—isolated from human erythrocytes (Calbiochem #208713); purchased Calbiochem 208713; host or cells: human erythrocytes (native tissue isolate)
T1 sequence (P07384 1-714): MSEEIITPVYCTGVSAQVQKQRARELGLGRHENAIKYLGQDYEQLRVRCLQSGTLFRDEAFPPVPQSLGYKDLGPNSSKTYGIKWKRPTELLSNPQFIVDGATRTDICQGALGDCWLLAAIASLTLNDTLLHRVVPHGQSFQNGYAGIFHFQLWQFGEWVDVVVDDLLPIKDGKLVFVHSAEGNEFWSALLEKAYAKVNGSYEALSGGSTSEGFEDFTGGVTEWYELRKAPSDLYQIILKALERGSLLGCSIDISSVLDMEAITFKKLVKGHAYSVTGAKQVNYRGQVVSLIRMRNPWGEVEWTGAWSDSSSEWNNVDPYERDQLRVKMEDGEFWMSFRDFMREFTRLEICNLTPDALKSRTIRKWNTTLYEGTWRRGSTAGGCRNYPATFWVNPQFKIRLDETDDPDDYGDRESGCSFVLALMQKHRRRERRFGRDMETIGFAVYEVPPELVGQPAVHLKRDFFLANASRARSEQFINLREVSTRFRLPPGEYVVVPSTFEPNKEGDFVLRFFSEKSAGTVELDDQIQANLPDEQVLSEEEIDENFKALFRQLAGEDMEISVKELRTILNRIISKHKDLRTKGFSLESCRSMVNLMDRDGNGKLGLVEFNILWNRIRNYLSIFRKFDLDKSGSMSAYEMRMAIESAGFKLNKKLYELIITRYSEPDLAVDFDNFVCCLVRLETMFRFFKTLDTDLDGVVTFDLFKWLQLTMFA
T1 sequence (P04632 1-268 partner): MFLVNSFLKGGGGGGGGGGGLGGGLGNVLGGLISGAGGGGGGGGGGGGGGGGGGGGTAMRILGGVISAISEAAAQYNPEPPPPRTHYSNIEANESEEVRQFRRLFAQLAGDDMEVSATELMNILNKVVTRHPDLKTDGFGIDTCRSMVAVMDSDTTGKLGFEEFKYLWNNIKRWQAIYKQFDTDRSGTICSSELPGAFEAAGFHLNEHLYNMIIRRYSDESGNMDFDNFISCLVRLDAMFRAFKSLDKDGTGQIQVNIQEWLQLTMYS
In words: Calpain I kinetic fluorescence enzyme inhibition assay. Format: biochemical. The following applies: apparent Ki from IC50 by Cheng-Prussoff. On the procedure: Testing for blockade of the corresponding enzymic activities was carried out by means of kinetic fluorescence assays (excitation 390 nm, emission 460 nm).
Apparent Ki values were calculated from the experimentally determined IC50 values by the Cheng-Prussoff relation assuming a reversible competitive enzyme inhibition.
20 nM calpain-I—isolated from human erythrocytes (Calbiochem #208713), 100 μM Suc-Leu-Tyr-AMC (Bachem #I-1355) as substrate in buffer with 62 mM imidazole, 0.3 mM CaCl2, 0.10% CHAPS, 0.05% BSA, 1 mM DTT at pH 7.3 and room temperature.
As for `NC(=O)C(=O)C(Cc1ccccc1)NC(=O)c1cccnc1-n1ccc(CN2CCOC3CCCCC32)n1` (single isomer, unassigned) [Example 8a, 2-(3-((2H-Benzo[b][1,4]oxazin-4(3H,4aH,5H,6H,7H,8H,8aH)-yl)methyl)-1H-pyrazol-1-yl)-N-(4-amino-3,4-dioxo-1-phenylbutan-2-yl)nicotinamide trifluoroacetate], the Ki is less than 250 nM. In the case of `CN(Cc1ccn(-c2ncccc2C(=O)NC(Cc2ccccc2)C(=O)C(N)=O)n1)CC1CCC(C(F)(F)F)CC1` (stereo not shown) [Example 25, N-(4-Amino-3,4-dioxo-1-phenylbutan-2-yl)-2-(3-((methyl((4-(trifluoromethyl)cyclohexyl)methyl)amino)methyl)-1H-pyrazol-1-yl)nicotinamide trifluoroacetate], the Ki was less than 250 nM. Turning to `CN(Cc1ccn(-c2ncccc2C(=O)NC(Cc2ccccc2)C(=O)C(N)=O)n1)c1ccccc1` (stereo not shown) [Example 16, N-(4-Amino-3,4-dioxo-1-phenylbutan-2-yl)-2-(3-((methyl(phenyl)amino)methyl)-1H-pyrazol-1-yl)nicotinamide], the Ki is less than 250 nM. The result for `NC(=O)C(=O)C(Cc1ccccc1)NC(=O)c1cccnc1-n1ccc(CN2CC3CC(F)(F)CC3C2)n1` (stereo not shown) [Example 13, N-(4-amino-3,4-dioxo-1-phenyl-2-butanyl)-2-{3-[(5,5-difluorohexahydrocyclopenta[c]pyrrol-2(1H)-yl)methyl]-1H-pyrazol-1-yl}nicotinamide trifluoroacetate] reads less than 250 nM; that for `NC(=O)C(=O)C(Cc1ccccc1)NC(=O)c1cccnc1-n1ccc(CNc2ccccc2)n1` (stereo not shown) [Example 28, N-(4-Amino-3,4-dioxo-1-phenylbutan-2-yl)-2-(3-((phenylamino)methyl)-1H-pyrazol-1-yl)nicotinamide], less than 250 nM. The result for `NC(=O)C(=O)C(Cc1ccccc1)NC(=O)c1cccnc1-n1ccc(CN2CCOC(c3ccccc3)C2)n1` (stereo not shown) [Example 9, N-(4-Amino-3,4-dioxo-1-phenylbutan-2-yl)-2-(3-((2-phenylmorpholino)methyl)-1H-pyrazol-1-yl)nicotinamide trifluoroacetate] reads less than 250 nM; that for `NC(=O)C(=O)C(Cc1ccccc1)NC(=O)c1cccnc1-n1ccc(CN2CC3COCC3C2)n1` (stereo not shown) [Example 14, N-(4-Amino-3,4-dioxo-1-phenylbutan-2-yl)-2-(3-((dihydro-1H-furo[3,4-c]pyrrol-5(3H,6H,6aH)-yl)methyl)-1H-pyrazol-1-yl)nicotinamide trifluoroacetate], less than 250 nM; that for `NC(=O)C(=O)C(Cc1ccccc1)NC(=O)c1cccnc1-n1ccc(CN2CCOC3CCCCC32)n1` (single isomer, unassigned) [Example 8b, 2-(3-((2H-Benzo[b][1,4]oxazin-4(3H,4aH,5H,6H,7H,8H,8aH)-yl)methyl)-1H-pyrazol-1-yl)-N-(4-amino-3,4-dioxo-1-phenylbutan-2-yl)nicotinamide trifluoroacetate], less than 250 nM. For `NC(=O)C(=O)C(Cc1ccccc1)NC(=O)c1cccnc1-n1ccc(CN2CCCCC2)n1` (stereo not shown) [Example 7, N-(4-Amino-3,4-dioxo-1-phenylbutan-2-yl)-2-(3-(piperidin-1-ylmethyl)-1H-pyrazol-1-yl)nicotinamide hydrochloride], the Ki is less than 250 nM. Consider `NC(=O)C(=O)C(Cc1ccccc1)NC(=O)c1cccnc1-n1ccc(CN2Cc3ccc(C(F)(F)F)cc3C2)n1` (stereo not shown) [Example 30, N-(4-Amino-3,4-dioxo-1-phenylbutan-2-yl)-2-(3-((5-(trifluoromethyl)isoindolin-2-yl)methyl)-1H-pyrazol-1-yl)nicotinamide trifluoroacetate], for which the Ki was less than 250 nM. Under `CCCCC(NC(=O)c1cccnc1-n1ccc(CN2CCCCC2)n1)C(=O)C(N)=O` (stereo not shown) [Example 37, N-(1-Amino-1,2-dioxoheptan-3-yl)-2-(3-(piperidin-1-ylmethyl)-1H-pyrazol-1-yl)nicotinamide] stands less than 250 nM. The result for `NC(=O)C(=O)C(Cc1ccccc1)NC(=O)c1cccnc1-n1ccc(CN2CCC(c3ccccc3)CC2)n1` (stereo not shown) [Example 5, N-(4-Amino-3,4-dioxo-1-phenylbutan-2-yl)-2-(3-((4-phenylpiperidin-1-yl)methyl)-1H-pyrazol-1-yl)nicotinamide] reads less than 250 nM. With `NC(=O)C(=O)C(Cc1ccccc1)NC(=O)c1cccnc1-n1ccc(CN2CCC(F)(F)CC2)n1` (stereo not shown) [Example 3, N-(4-Amino-3,4-dioxo-1-phenylbutan-2-yl)-2-(3-((4,4-difluoropiperidin-1-yl)methyl)-1H-pyrazol-1-yl)nicotinamide trifluoroacetate], the Ki was less than 250 nM. As to `CCCCC(NC(=O)c1cccnc1-n1ccc(CN2CCC(F)(F)CC2)n1)C(=O)C(N)=O` (stereo not shown) [Example 38, N-(1-Amino-1,2-dioxoheptan-3-yl)-2-(3-((4,4-difluoropiperidin-1-yl)methyl)-1H-pyrazol-1-yl)nicotinamide], the Ki was less than 250 nM.

Regarding `O=C(NC1CC1)C(=O)C(Cc1ccccc1)NC(=O)c1cccnc1-n1ccc(CN2Cc3ccccc3C2)n1` (stereo not shown) [Example C2, reference compound], the Ki lay within 800 to 1000 nM. Regarding `NC(=O)C(=O)C(Cc1ccccc1)NC(=O)c1cccnc1-n1ccc(CN2CCCC2)n1` (stereo not shown) [Example 10, N-(4-Amino-3,4-dioxo-1-phenylbutan-2-yl)-2-(3-(pyrrolidin-1-ylmethyl)-1H-pyrazol-1-yl)nicotinamide trifluoroacetate], the Ki lay in the range of 250 to 400 nM.

As to `NC(=O)C(=O)C(Cc1ccccc1)NC(=O)c1cccnc1-n1cc2c(n1)CCN(Cc1ccccc1)C2` (stereo not shown) [Example 40, N-(4-Amino-3,4-dioxo-1-phenylbutan-2-yl)-2-(5-benzyl-4,5,6,7-tetrahydro-2H-pyrazolo[4,3-c]pyridin-2-yl)nicotinamide], the Ki was less than 250 nM.

Turning to `NC(=O)C(=O)C(Cc1ccccc1)NC(=O)c1cccnc1-n1ccc(CN2Cc3ccccc3C2)n1` (stereo not shown) [Example 19, N-(4-Amino-3,4-dioxo-1-phenylbutan-2-yl)-2-(3-(isoindolin-2-ylmethyl)-1H-pyrazol-1-yl)nicotinamide], the Ki is less than 250 nM.

Consider `CC(c1ccn(-c2ncccc2C(=O)NC(Cc2ccccc2)C(=O)C(N)=O)n1)N1Cc2ccccc2C1` (stereo not shown) [Example 35, N-(4-Amino-3,4-dioxo-1-phenylbutan-2-yl)-2-(3-(1-(isoindolin-2-yl)ethyl)-1H-pyrazol-1-yl)nicotinamide trifluoroacetate], for which the Ki was less than 250 nM. Consider `CC(C)(C)OC(=O)N1CCc2cn(-c3ncccc3C(=O)NC(Cc3ccccc3)C(=O)C(N)=O)nc2C1` (stereo not shown) [Example 45, tert-Butyl 2-(3-(4-amino-3,4-dioxo-1-phenylbutan-2-ylcarbamoyl)pyridin-2-yl)-2,4,5,7-tetrahydro-6H-pyrazolo[3,4-c]pyridine-6-carboxylate], for which the Ki was less than 250 nM.

Take `NC(=O)C(=O)C(Cc1ccccc1)NC(=O)c1cccnc1-n1cc2c(n1)CNCC2` (stereo not shown) [Example 46, N-(4-Amino-3,4-dioxo-1-phenyl-2-butanyl)-2-(4,5,6,7-tetrahydro-pyrazolo[3,4-c]pyridin-2-yl)nicotinamide hydrochloride]: the Ki is less than 250 nM. Turning to `CC1CN(Cc2ccn(-c3ncccc3C(=O)NC(Cc3ccccc3)C(=O)C(N)=O)n2)CC(C)O1` (single isomer, unassigned) [Example 2a, N-(4-Amino-3,4-dioxo-1-phenylbutan-2-yl)-2-(3-((2,6-dimethylmorpholino)-methyl)-1H-pyrazol-1-yl)nicotinamide], the Ki was less than 250 nM.
